Test results reported in patent US12384769B2, “Heteroaryl-substituted aminoalkyl azole compounds as pesticides” (Elanco Animal Health GmbH, priority 2019, dated 2025).

How the values were obtained:
Format in all cases: in vivo
[1] = tested on: Boophilus microplus; experiment: Boophilus microplus injection test (BOOPMI Injection); details: Rhipicephalus microplus, 168 h, injection into adult engorged female ticks, egg deposition after 7 days, read-out: activity (efficacy, infertile eggs); for pest or weed control at 0.004 mg: 4 μg/animal; for pest or weed control at 0.02 mg: 20 μg/animal
Experimental: Boophilus microplus—Injection Test (BOOPMI Injection)
(§1) Solvent: dimethyl sulfoxide
To produce a suitable preparation of active compound, 10 mg of active compound are dissolved in 0.5 mL solvent, and the concentrate is diluted with solvent to the desired concentration.
Five adult engorged female ticks (Boophilus microplus) are injected with 1 μL compound solution into the abdomen. The ticks are transferred into replica plates and incubated in a climate chamber.
After 7 days egg deposition of fertile eggs is monitored. Eggs where fertility is not visible are stored in a climate chamber till hatching after about 42 days. An efficacy of 100% means all eggs are infertile; 0% means all eggs are fertile.

[2] = tested on: Rhipicephalus microplus (strain Parkhurst, resistant against synthetic pyrethroids); experiment: Rhipicephalus microplus in-vitro contact test, larval cattle tick (BOOPMI Contact); details: 5 μg/cm^2 (=500 g/ha), after 48 hours, read-out: activity (efficacy, larvae dead or moribund)
Experimental: Rhipicephalus microplus—in-Vitro Contact Tests Larval Cattle Tick (Strain Parkhurst, Resistant Against Synthetic Pyrethroids) (BOOPMI Contact)
(§2) 9 mg compound is solved in 1 ml acetone and diluted with acetone to the desired concentration. 250 μL of the test solution is filled in 25 ml glass test tubes and homogeneously distributed on the inner walls by rotation and tilting on a shaking device (2 h at 30 rpm). With a compound concentration of 900 ppm, an inner surface of 44.7 cm^2 and a homogeneous distribution, a dose of 5 μg/cm^2 is achieved.
After the solvent has evaporated, each test tube is filled with 20-50 cattle tick larvae (Rhipicephalus microplus), closed with a perforated lid and incubated in a horizontal position at 85% relative humidity and 27° C. in an incubator. After 48 hours efficacy is determined. The larvae are patted on the ground of the tubes and negative geotactic behaviour is recorded.
An efficacy of 100% means all larvae are dead or moribund; 0% means no larvae are dead or moribund.

[3] = tested on: Ctenocephalides felis; experiment: Ctenocephalides felis in-vitro contact test, adult cat flea; details: 5 μg/cm^2 (=500 g/ha), after 48 hours, read-out: activity (efficacy, fleas dead or moribund)
Experimental: Ctenocephalides felis—in-Vitro Contact Tests Adult Cat Flea
as §2, with “[…]” for “250 μL”
(§3) After the solvent has evaporated, each test tube is filled with 5-10 adult cat fleas (Ctenocephalides felis), closed with a perforated lid and incubated in a lying position at room temperature and relative humidity. After 48 hours efficacy is determined. The fleas are patted on the ground of the tubes and are incubated on a heating plate at 45-50° C. for at most 5 minutes Immotile or uncoordinated moving fleas, which are not able to escape the heat by climbing upwards, are marked as dead or moribund.
An efficacy of 100% means all fleas are dead or moribund; 0% means no fleas are dead or moribund.

[4] = tested on: Ctenocephalides felis; experiment: Ctenocephalides felis oral test (CTECFE); details: 48 h, 100 ppm in cattle blood, after 2 days
Experimental: Ctenocephalides felis—Oral Test (CTECFE)
as §1
To produce a suitable preparation of active compound, 10 mg of active compound are dissolved in 0.5 ml solvent, and the concentrate is diluted with cattle blood to the desired concentration.
Approximately 20 adult unfed cat fleas (Ctenocephalides felis) are placed in flea chambers. The blood chamber, sealed with parafilm on the bottom, are filled with cattle blood supplied with compound solution and placed on the gauze covered top of the flea chamber, so that the fleas are able to suck the blood. The blood chamber is heated to 37° C. whereas the flea chamber is kept at room temperature.
After 2 days mortality in % is determined. 100% means all the fleas have been killed; 0% means none of the fleas have been killed.

[5] = tested on: Diabrotica balteata; experiment: Diabrotica balteata spray test; details: 168 h, wheat seeds, after 7 days, read-out: activity (efficacy, seedlings grown); for pest or weed control at 160 µg/disc, 500 g/ha: 500 g/ha (=160 μg/well)
Experimental: Diabrotica balteata—Spray Test
Solvent: 78.0 parts by weight of acetone • • 1.5 parts by weight of dimethylformamide
(§4) Emulsifier: alkylarylpolyglycol ether
(§5) To produce a suitable preparation of active compound, 1 part by weight of active compound is mixed with the stated amount of solvent, and the concentrate is diluted with water, containing an emulsifier concentration of 1000 ppm, to the desired concentration. Further test concentrations are prepared by dilution with emulsifier containing water.
Soaked wheat seeds (Triticum aestivum) are placed in a multiple well plate filled with agar and some water and are incubated for 1 day to germinate (5 seeds per well). The germinated wheat seeds are sprayed with a test solution containing the desired concentration of the active ingredient. Afterwards each unit is infected with 10-20 larvae of the banded cucumber beetle (Diabrotica balteata).
After 7 days efficacy in % is determined. 100% means all the seedlings have grown up like in the untreated, uninfected control; 0% means none of the seedlings have grown.

[6] = tested on: Spodoptera frugiperda; experiment: Spodoptera frugiperda spray test; details: in Zea mays, 168 h, read-out: activity (mortality)
Experimental: Spodoptera frugiperda—Spray Test
Solvent: 78.0 parts by weight acetone • 1.5 parts by weight dimethylformamide
as §4
as §5, with “solvents” for “solvent,”, “and” for “and the concentrate”
Maize (Zea mays) leaf sections are sprayed with a preparation of the active ingredient of the desired concentration. Once dry, the leaf sections are infested with fall armyworm larvae (Spodoptera frugiperda).
After 7 days mortality in % is determined. 100% means all caterpillars have been killed and 0% means none of the caterpillars have been killed.

[7] = tested on: Rhipicephalus sanguineus; experiment: Rhipicephalus sanguineus in-vitro contact test, adult brown dog ticks (RHIPSA Contact); details: 5 μg/cm^2 (=500 g/ha), after 48 hours, read-out: activity (efficacy, ticks dead or moribund)
Experimental: Rhipicephalus sanguineus—in-Vitro Contact Tests with Adult Brown Dog Ticks (RHIPSA Contact)
as §2, with “μl_,” for “μL”
as §3, with “brown dog ticks (Rhipicephalus sanguineus),” for “cat fleas (Ctenocephalides felis),”, “ticks” for “fleas”, “ticks,” for “fleas,”
An efficacy of 100% means all ticks are dead or moribund; 0% means no ticks are dead or moribund.

Compound	pest or weed control at 0.004 mg [1]	pest or weed control at 0.02 mg [1]	pest or weed control at 5 µg/cm2 [2]	pest or weed control at 5 µg/cm2, 5 µg/cm2 [3]	mortality at 100 ppm [4]	pest or weed control at 100 g/ha [5]	pest or weed control at 160 µg/disc, 500 g/ha [5]	mortality at 500 g/ha [6]	pest or weed control at 5 µg/cm2, 5 µg/cm2 [7]	mortality at 100 g/ha [6]
Cc1nc([C@H](C)Nc2nc3cc(C(F)(F)F)cc(Cl)c3o2)n(-c2ncccn2)n1 [Example I-014]	100%	100%	100%	80%	100%	100%	100%	100%	–	–
Cc1nc([C@H](C)Nc2nc3cc(C(F)(F)F)c(Cl)cc3o2)n(-c2ccc(C#N)cn2)n1 [Example I-019]	–	100%	100%	100%	–	100%	100%	100%	–	–
C[C@H](Nc1nc2cc(C(F)(F)F)c(Cl)cc2o1)c1ncnn1-c1ccc(C(F)(F)F)cn1 [Example I-031]	–	–	–	–	–	–	–	–	80%	–
C[C@H](Nc1nc2cc(C(F)(F)F)cc(Cl)c2o1)c1ncnn1-c1ncc(C#N)cn1 [Example I-042, 2-{5-[(1S)-1-{[7-Chlor-5-(trifluormethyl)-1,3-benzoxazol-2-yl]amino}ethyl]-1H-1,2,4-triazol-1-yl}pyrimidin-5-carbonitril]	–	–	90%	90%	–	–	–	–	–	–
C[C@H](Nc1nc2cc(C(F)(F)F)cc(Cl)c2o1)c1ncnn1-c1cc(C#N)ccn1 [Example I-052, 2-{5-[(1S)-1-{[7-Chlor-5-(trifluormethyl)-1,3-benzoxazol-2-yl]amino}ethyl]-1H-1,2,4-triazol-1-yl}isonicotinonitril]	100%	100%	–	100%	–	–	100%	100%	–	–
C[C@H](Nc1nc2cc(C(F)(F)F)c(Cl)cc2o1)c1ncnn1-c1cnc(C#N)cn1 [Example I-057, 5-{5-[(1S)-1-{[6-Chlor-5-(trifluormethyl)-1,3-benzoxazol-2-yl]amino}ethyl]-1H-1,2,4-triazol-1-yl}pyrazin-2-carbonitril]	80%	–	100%	100%	100%	–	–	–	–	100%
COc1cnc(-n2ncnc2[C@H](C)Nc2nc3cc(C(F)(F)F)c(Cl)cc3o2)nc1 [Example I-058, 6-Chlor-N-{(1S)-1-[1-(5-methoxypyrimidin-2-yl)-1H-1,2,4-triazol-5-yl]ethyl}-5-(trifluormethyl)-1,3-benzoxazol-2-amin]	–	–	100%	100%	–	100%	–	–	–	83%
CC(C)c1cc(Cl)c2oc(N[C@@H](C)c3ncnn3-c3ccncn3)nc2c1 [Example I-066, 7-Chlor-5-isopropyl-N-{(1S)-1-[1-(pyrimidin-4-yl)-1H-1,2,4-triazol-5-yl]ethyl}-1,3-benzoxazol-2-amin]	100%	100%	90%	–	–	–	100%	–	80%	–
C[C@H](Nc1nc2cc(OC(F)(F)F)cc(Cl)c2o1)c1ncnn1-c1ncccn1 [Example I-070, 7-Chlor-N-{(1S)-1-[1-(pyrimidin-2-yl)-1H-1,2,4-triazol-5-yl]ethyl}-5-(triflourmethoxy)-1,3-benzoxazol-2-amin]	–	–	–	90%	100%	100%	–	–	–	100%
C[C@H](Nc1nc2cc(OC(F)F)cc(Cl)c2o1)c1ncnn1-c1ncc(Br)cn1 [Example I-071, N-{(1S)-1-[1-(5-Brompyrimidin-2-yl)-1H-1,2,4-triazol-5-yl]ethyl}-7-chlor-5-(difluormethoxy)-1,3-benzoxazol-2-amin]	–	–	–	90%	100%	100%	–	–	–	–
C[C@H](Nc1nc2cc(OC(F)F)cc(Cl)c2o1)c1ncnn1-c1ncccn1 [Example I-074, 7-Chlor-5-(difluormethoxy)-N-{(1S)-1-[1-(pyrimidin-2-yl)-1H-1,2,4-triazol-5-yl]ethyl}-1,3-benzoxazol-2-amin]	80%	–	–	100%	100%	–	–	–	–	–
C[C@H](Nc1nc2cc(OC(F)(F)F)cc(Cl)c2o1)c1ncnn1-c1ncc(Cl)cn1 [Example I-079, 7-Chlor-N-{(1S)-1-[1-(5-chlorpyrimidin-2-yl)-1H-1,2,4-triazol-5-yl]ethyl}-5-(trifluormethoxy)-1,3-benzoxazol-2-amin]	80%	–	–	100%	100%	100%	–	–	–	–
C[C@H](Nc1nc2cc(C(F)(F)F)c(Br)cn2n1)c1ncnn1-c1ncccn1 [Example I-094, 6-bromo-N-{(1S)-1-[1-(pyrimidin-2-yl)-1H-1,2,4-triazol-5-yl]ethyl}-7-(trifluoromethyl)[1,2,4]triazolo[1,5-a]pyridin-2-amine]	100%	100%	–	100%	100%	100%	–	–	–	–
